Assay results: patent publication US20050239733A1, “Sequence requirements for inhibitory oligonucleotides” (Coley Pharmaceutical GmbH, priority 2003, published 2005)

Legend:
human PBMC = experiment: Inhibition of CpG ODN 2395-induced IFN-α secretion by human PBMC; assay type: cell-based; details: FIG. 9; 0.5 μM CpG ODN 2395, increasing ODN, 24 h
Method: In this set of experiments human PBMC were isolated from human blood and incubated in the presence of 0.5 μM CpG ODN 2395 ([…]; SEQ ID NO:30) and increasing concentrations of inhibitory ODN. CpG ODN 2395 induces high amounts of IFN-α in human PBMC through TLR9-mediated signaling. The secreted amount of IFN-α induced by CpG ODN 2395 after 24 h was set to 100%.

human TLR8 = target: T1, human TLR8 (Homo sapiens, UniProt Q9NR97); experiment: Inhibition of R-848-mediated NF-κB-luciferase activation in hTLR8-LUC-293 cells; assay type: cell-based; details: general statement 'found according to the present invention'; conditions not given
T1 construct: expressed in transfected cells
T1 sequence (Q9NR97 27-1041): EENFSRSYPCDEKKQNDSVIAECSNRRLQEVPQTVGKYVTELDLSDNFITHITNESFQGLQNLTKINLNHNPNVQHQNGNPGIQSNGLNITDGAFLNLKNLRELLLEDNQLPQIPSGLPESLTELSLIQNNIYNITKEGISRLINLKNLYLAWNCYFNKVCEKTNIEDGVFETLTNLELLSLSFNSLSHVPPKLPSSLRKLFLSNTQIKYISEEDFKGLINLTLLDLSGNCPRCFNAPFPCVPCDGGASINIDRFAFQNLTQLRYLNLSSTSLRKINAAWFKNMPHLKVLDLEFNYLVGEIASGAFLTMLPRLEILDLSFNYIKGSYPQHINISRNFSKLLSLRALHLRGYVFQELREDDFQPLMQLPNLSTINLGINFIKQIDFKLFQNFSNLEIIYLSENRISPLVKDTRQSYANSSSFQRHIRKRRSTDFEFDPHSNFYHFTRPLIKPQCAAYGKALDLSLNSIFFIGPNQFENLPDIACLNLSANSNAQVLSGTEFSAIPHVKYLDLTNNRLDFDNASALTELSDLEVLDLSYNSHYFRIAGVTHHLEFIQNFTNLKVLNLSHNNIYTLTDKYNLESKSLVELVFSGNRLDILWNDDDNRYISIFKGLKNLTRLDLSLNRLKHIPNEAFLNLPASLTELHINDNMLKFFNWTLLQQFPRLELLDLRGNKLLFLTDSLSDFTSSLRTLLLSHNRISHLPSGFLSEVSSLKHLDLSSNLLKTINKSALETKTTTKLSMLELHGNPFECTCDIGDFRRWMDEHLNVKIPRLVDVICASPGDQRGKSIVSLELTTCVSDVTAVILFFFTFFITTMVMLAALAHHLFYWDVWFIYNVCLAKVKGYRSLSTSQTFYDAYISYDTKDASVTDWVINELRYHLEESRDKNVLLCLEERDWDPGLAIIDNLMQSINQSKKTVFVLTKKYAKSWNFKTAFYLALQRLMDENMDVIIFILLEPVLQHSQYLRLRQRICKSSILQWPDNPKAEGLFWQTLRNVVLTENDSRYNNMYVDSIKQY
Method: The previous examples describe the ability of certain inhibitory ODN to inhibit activation of signal transduction mediated by human Toll-like receptor 9 (hTLR9). […] The assay system involved stimulating hTLR8-LUC-293 cells with the TLR8 ligand, R-848 (Resiquimod; Jurk M et al. (2002) Nat Immunol 3:499) in the presence and absence of ODN and comparing the induction of luciferase activity in the absence of ODN to luciferase activity in the presence of ODN.
Cells were assayed for luciferase activity 16 h later. Results were calculated as fold induction above medium background.
Luciferase activity was assayed after 16 h.
hTLR8-LUC-293 cells were incubated with 50 μM R-848 in the presence of increasing concentrations of the following ODN: ODN 2088, D13GT (whererin D is dSpacer), GTN13, N6GTN7, random 15-mer N15, N13GT, and the dinucleotide GT. Luciferase activity was assayed after 16 h. Luciferase activity of R-848 without any ODN was set to 100% (without correction for medium background, i.e. background activity of medium remained at approx. 17%).
Luciferase activity was assayed after 16 h. Luciferase activity of R-848 without any ODN was set to 100% (without correction for medium background, i.e., background activity of medium remained at approx. 17%).
In yet a further set of experiments hTLR8-LUC-293 cells were incubated with 50 μM R-848 in the presence of increasing amounts of different dinucleotides (GT, ODN 603; TG, ODN 688; GG, ODN 689; GU, ODN 690; UG, ODN 691; AT, ODN 692; and TT, ODN 693). Luciferase was assayed after 16 h. Luciferase activity of R-848 without any ODN was set to 100% and remaining R-848-mediated NF-κB activation in the presence of dinucleotides or ODN 2088 was calculated. Medium background was 17% in this set of experiments.
hTLR-LUC-293 cells (expressing the respective humanTLR7, TLR8, or TLR9) were incubated with constant amounts of TLR-agonist (for hTLR7: 2 μM R-848, for hTLR8: 50 μM R-848, and for hTLR9: 0.156 μM CpG ODN 2006) and increasing amounts of TLR-antagonist. […] To compare data for different TLRs, percent remaining activity of agonist was plotted against the log of molar ratio of antagonist to agonist (e.g., for hTLR8: 50 μM R-848 and 5 μM ODN, the plotted ratio is 10^−1). Used ODN concentrations were: for hTLR7 and hTLR8, 5 μM, 0.5 μM, 0.05 μM, and 0.005 μM, and for hTLR9, 2.5 μM, 0.156 μM, 0.0098 μM and 0.00061 μM.

human TLR9 = target: T2, human TLR9 (Homo sapiens, UniProt Q9NR96); experiment: Inhibition of CpG ODN 2006-mediated NF-κB-luciferase activation in hTLR9-LUC-293 cells; details: for inhibitory for TLR9: general statement 'found according to the present invention', conditions not given; for Percent 2006 Activity: equimolar 0.156 μM CpG ODN 2006 and inhibitory ODN
T2 sequence (Q9NR96 26-1032): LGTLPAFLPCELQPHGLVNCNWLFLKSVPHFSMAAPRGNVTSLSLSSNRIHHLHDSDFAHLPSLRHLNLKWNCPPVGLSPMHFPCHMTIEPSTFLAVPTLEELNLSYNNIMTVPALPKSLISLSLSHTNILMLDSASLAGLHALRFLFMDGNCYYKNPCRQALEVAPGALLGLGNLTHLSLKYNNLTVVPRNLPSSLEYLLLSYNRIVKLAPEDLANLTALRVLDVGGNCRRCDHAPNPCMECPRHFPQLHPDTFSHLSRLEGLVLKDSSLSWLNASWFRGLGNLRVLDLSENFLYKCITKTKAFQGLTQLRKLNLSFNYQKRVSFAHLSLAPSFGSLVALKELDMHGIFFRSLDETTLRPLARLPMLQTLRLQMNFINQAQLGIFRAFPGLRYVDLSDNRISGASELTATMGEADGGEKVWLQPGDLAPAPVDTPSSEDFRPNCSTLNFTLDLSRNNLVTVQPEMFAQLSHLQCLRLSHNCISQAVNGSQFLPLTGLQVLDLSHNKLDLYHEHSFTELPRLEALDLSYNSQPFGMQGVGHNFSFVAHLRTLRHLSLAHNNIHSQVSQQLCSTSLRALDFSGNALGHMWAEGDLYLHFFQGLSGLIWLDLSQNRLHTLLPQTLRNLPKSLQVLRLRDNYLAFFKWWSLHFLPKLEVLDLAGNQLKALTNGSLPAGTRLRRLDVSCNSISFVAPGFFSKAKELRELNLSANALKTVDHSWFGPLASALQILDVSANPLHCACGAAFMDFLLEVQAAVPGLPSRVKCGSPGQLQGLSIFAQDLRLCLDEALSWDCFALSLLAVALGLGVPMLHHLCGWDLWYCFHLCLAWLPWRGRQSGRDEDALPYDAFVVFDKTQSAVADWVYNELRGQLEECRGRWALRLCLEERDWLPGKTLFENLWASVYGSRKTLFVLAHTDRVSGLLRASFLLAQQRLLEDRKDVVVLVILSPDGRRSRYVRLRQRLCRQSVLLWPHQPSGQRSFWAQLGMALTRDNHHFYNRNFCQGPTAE

[1] = Table 2 (5′ CC replaced by other dinucleotides)

## CCTTGTTGGG (DNA, backbone and methylation of C not given here) [ODN 223]
Human PBMC
  inhibition of IFN-α production in human PBMC, in words: inhibited

## NNNNNNNNNNNNNGT [ODN 467]
Human PBMC
  inhibition of IFN-α production in human PBMC, in words: not

## TCCTGGAGGGGAAGT (DNA, backbone and methylation of C not given here) [ODN 2114]
Human TLR8
  inhibitory for TLR8: inhibitory
Human TLR9
  inhibitory for TLR9: inhibitory

## TCCTGTGTGTGTGTGTGTCGGGGAAGT (DNA, backbone and methylation of C not given here) [ODN 497]
Human TLR8
  inhibitory for TLR8: inhibitory
Human TLR9; Table 1 (length b / Spacer 18 variants)
  Percent 2006 Activity: 28%
Human TLR9
  inhibitory for TLR9: inhibitory

## TGATGGCGGGGAAGT (listed as DNA, chemistry not given here) [ODN 444]
Human TLR8
  inhibitory for TLR8: inhibitory
Human TLR9; [1]
  Percent 2006 Activity: 96%

## TGCTGGCGGGGAAGT (listed as DNA, chemistry not given here) [ODN 443]
Human TLR8
  inhibitory for TLR8: inhibitory
Human TLR9; [1]
  Percent 2006 Activity: 91%

## TGTTGGCGGGGAAGT (listed as DNA, chemistry not given here) [ODN 445]
Human TLR8
  inhibitory for TLR8: inhibitory
Human TLR9; [1]
  Percent 2006 Activity: 97%
